In ChEMBL document CHEMBL1124150, “cis-4-Carboxy-6-(mercaptomethyl)-3,4,5,6-tetrahydropyrimidin-2(1 H)-one , a potent inhibitor of mammalian dihydroorotase” (J Med Chem, 1988):

How the values were obtained:
B16 [1] = assay: In vitro antiproliferative activity against Murine B16 Melanoma cells in presence of 1 mM uridine at a dose of 0.25 mM; assay type: functional, Mus musculus
B16 [2] = assay: In vitro antiproliferative activity against Murine B16 Melanoma cells without uridine at a dose of 1 mM; assay type: functional, Mus musculus
B16 [3] = assay: In vitro antiproliferative activity against Murine B16 Melanoma cells in presence of 1 mM uridine at a dose of 0.5 mM; assay type: functional, Mus musculus
B16 [4] = assay: In vitro antiproliferative activity against Murine B16 Melanoma cells in presence of 1 mM uridine at a dose of 0.12 mM; assay type: functional, Mus musculus
B16 [5] = assay: In vitro antiproliferative activity against Murine B16 Melanoma cells without uridine at a dose of 0.12 mM; assay type: functional, Mus musculus
B16 [6] = assay: In vitro antiproliferative activity against Murine B16 Melanoma cells without uridine at a dose of 0.25 mM; assay type: functional, Mus musculus
B16 [7] = assay: In vitro antiproliferative activity against Murine B16 Melanoma cells in presence of 1 mM uridine at a dose of 2 mM; assay type: functional, Mus musculus
B16 [8] = assay: In vitro antiproliferative activity against Murine B16 Melanoma cells without uridine at a dose of 0.5 mM; assay type: functional, Mus musculus
B16 [9] = assay: In vitro antiproliferative activity against Murine B16 Melanoma cells in presence of 1 mM uridine at a dose of 1 mM; assay type: functional, Mus musculus
B16 [10] = assay: In vitro antiproliferative activity against Murine B16 Melanoma cells without uridine at a dose of 2 mM; assay type: functional, Mus musculus
[11] = Dissociation constant was determined; assay type: physicochemical
B16 [12] = assay: In vitro antiproliferative activity against Murine B16 Melanoma cells without uridine at a dose of 10 mM; assay type: functional, Mus musculus
B16 [13] = assay: In vitro antiproliferative activity against Murine B16 Melanoma cells in presence of 1 mM uridine at a dose of 0.01 mM; assay type: functional, Mus musculus
B16 [14] = assay: In vitro antiproliferative activity against Murine B16 Melanoma cells without uridine at a dose of 0.1 mM; assay type: functional, Mus musculus
B16 [15] = assay: In vitro antiproliferative activity against Murine B16 Melanoma cells in presence of 1 mM uridine at a dose of 0.1 mM; assay type: functional, Mus musculus
B16 [16] = assay: In vitro antiproliferative activity against Murine B16 Melanoma cells in presence of 1 mM uridine at a dose of 10 mM; assay type: functional, Mus musculus
B16 [17] = assay: In vitro antiproliferative activity against Murine B16 Melanoma cells without uridine at a dose of 0.01 mM; assay type: functional, Mus musculus

| Ki [11] [µM] | Compound | Growth inhibition (B16 [1]) [%] | Growth inhibition (B16 [2]) [%] | Growth inhibition (B16 [3]) [%] | Growth inhibition (B16 [4]) [%] | Growth inhibition (B16 [5]) [%] | Growth inhibition (B16 [6]) [%] | Growth inhibition (B16 [7]) [%] | Growth inhibition (B16 [8]) [%] | Growth inhibition (B16 [9]) [%] | Growth inhibition (B16 [10]) [%] | Growth inhibition (B16 [12]) [%] | Growth inhibition (B16 [13]) [%] | Growth inhibition (B16 [14]) [%] | Growth inhibition (B16 [15]) [%] | Growth inhibition (B16 [16]) [%] | Growth inhibition (B16 [17]) [%] |
| --- | --- | --- | --- | --- | --- | --- | --- | --- | --- | --- | --- | --- | --- | --- | --- | --- | --- |
| – | COC(=O)[C@@H]1C[C@H](CSC(C)=O)NC(=O)N1 (relative stereo) | 2 | 94 | 9 | 0 | 0 | 2 | 98 | 28 | 83 | 96 | – | – | – | – | – | – |
| 0.2 | O=C1N[C@@H](CS)C[C@@H](C(=O)O)N1 (relative stereo) | 3 | 17 | 4 | 0 | 4 | 9 | 18 | 14 | 12 | 22 | – | – | – | – | – | – |
| – | O=C(O)C[C@H](NC(=O)CP(=O)(O)O)C(=O)O [PALA] | – | 86 | – | – | – | – | – | – | 9 | – | 84 | 6 | 79 | 6 | 10 | 16 |
